Reference: ChEMBL document CHEMBL1154987, “C-Aryl glycoside inhibitors of SGLT2: Exploration of sugar modifications including C-5 spirocyclization” (Bioorg Med Chem Lett, 2010)

Key:
[1] = molecular target: T1, Sodium/glucose cotransporter 2 (Homo sapiens, UniProt P31639); assay: Inhibition of human SGLT2 expressed in CHO cells assessed as inhibition of sodium-dependent methyl-alpha-D-[U-14C]glucopyranoside uptake after 2 hrs; assay type: cell-based
T1 sequence (P31639 whole entry): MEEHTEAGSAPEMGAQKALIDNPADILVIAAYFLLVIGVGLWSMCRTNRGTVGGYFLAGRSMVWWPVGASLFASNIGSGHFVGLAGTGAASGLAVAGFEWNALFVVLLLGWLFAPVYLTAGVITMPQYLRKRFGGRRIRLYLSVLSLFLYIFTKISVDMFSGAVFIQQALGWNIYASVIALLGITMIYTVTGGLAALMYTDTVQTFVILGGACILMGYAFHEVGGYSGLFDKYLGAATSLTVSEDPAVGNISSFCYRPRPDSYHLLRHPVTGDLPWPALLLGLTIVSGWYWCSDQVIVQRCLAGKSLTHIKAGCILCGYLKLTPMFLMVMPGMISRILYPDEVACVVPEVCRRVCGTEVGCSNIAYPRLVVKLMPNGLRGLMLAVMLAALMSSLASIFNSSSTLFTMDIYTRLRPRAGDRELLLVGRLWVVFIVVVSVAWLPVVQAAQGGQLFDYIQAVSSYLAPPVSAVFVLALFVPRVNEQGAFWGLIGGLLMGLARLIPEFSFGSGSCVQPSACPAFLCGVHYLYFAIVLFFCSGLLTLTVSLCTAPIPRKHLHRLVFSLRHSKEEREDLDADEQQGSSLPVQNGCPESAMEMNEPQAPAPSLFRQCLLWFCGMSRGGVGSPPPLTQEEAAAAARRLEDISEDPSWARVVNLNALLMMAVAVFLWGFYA

[2] = molecular target: T2, Sodium/glucose cotransporter 1 (Homo sapiens, UniProt P13866); assay: Inhibition of human SGLT1 expressed in CHO cells assessed as inhibition of sodium-dependent methyl-alpha-D-[U-14C]glucopyranoside uptake after 2 hrs; assay type: cell-based
T2 sequence (P13866 whole entry): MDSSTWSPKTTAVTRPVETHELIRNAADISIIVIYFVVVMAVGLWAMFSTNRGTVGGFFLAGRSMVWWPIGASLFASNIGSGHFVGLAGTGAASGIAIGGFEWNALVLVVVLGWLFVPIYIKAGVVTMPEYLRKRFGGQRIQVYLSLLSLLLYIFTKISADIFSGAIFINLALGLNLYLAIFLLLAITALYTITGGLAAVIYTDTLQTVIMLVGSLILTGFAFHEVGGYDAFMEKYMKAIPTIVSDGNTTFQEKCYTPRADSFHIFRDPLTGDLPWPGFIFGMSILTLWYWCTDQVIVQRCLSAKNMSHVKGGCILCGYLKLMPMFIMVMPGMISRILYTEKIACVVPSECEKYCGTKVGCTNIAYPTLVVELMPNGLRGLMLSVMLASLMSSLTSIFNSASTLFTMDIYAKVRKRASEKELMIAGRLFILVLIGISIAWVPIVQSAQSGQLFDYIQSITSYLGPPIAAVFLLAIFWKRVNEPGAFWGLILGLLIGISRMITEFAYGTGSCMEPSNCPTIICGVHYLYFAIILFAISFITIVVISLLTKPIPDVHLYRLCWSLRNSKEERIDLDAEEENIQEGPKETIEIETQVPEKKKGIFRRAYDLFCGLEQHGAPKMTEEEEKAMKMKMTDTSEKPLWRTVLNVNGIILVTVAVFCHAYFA

[3] = Clearance in Sprague-Dawley rat at 2 mg/kg, iv; assay type: ADME, organism-based; design: dose 2 mg/kg, route intravenous; conditions: in vivo
[4] = Volume of distribution at steady state in Sprague-Dawley rat at 2 mg/kg, iv; assay type: ADME, organism-based; design: dose 2 mg/kg, route intravenous; conditions: in vivo, read-out: Vdss
[5] = Half life in Sprague-Dawley rat at 2 mg/kg, iv; assay type: ADME, organism-based; design: dose 2 mg/kg, route intravenous; conditions: in vivo
[6] = Oral bioavailability in Sprague-Dawley rat at 5 mg/kg; assay type: ADME, organism-based; conditions: in vivo
Rattus norvegicus = assay: Antidiabetic activity in Sprague-Dawley rat assessed as maximum urinary glucose excretion at 60 mg/kg, po over 24 hrs measured per 200 g body weight; assay type: functional, Urine
Homo sapiens = species: Homo sapiens; assay: Selectivity ratio of IC50 for human SGLT2 over IC50 for human SGLT1
[7] = Clearance in Sprague-Dawley rat at 1 mg/kg, iv; assay type: ADME, organism-based; design: dose 1 mg/kg, route intravenous; conditions: in vivo
[8] = Volume of distribution at steady state in Sprague-Dawley rat at 1 mg/kg, iv; assay type: ADME, organism-based; design: dose 1 mg/kg, route intravenous; conditions: in vivo, read-out: Vdss
[9] = Half life in Sprague-Dawley rat at 1 mg/kg, iv; assay type: ADME, organism-based; design: dose 1 mg/kg, route intravenous; conditions: in vivo

Row | Compound | IC50 [1] [nM] | IC50 [2] [nM] | further results
1 | CCc1ccc(Cc2cc([C@@H]3O[C@H](CO)[C@@H](O)C[C@H]3O)ccc2C)cc1 | 2000 | – | –
2 | COc1ccc(Cc2cc([C@@H]3OC4(COC4)[C@@H](O)[C@H](O)[C@H]3O)ccc2Cl)cc1 | 23 | > 9600 | –
3 | CCOc1ccc(Cc2cc([C@@H]3O[C@H](CO)[C@@H](O)[C@H](O)[C@H]3O)ccc2Cl)cc1 [DAPAGLIFLOZIN] | – | – | clearance [3]: 10 mL/min/kg; Vd [4]: 3.8 L/kg; half-life [5]: 264 min; bioavailability [6]: 100%
4 | CCc1ccc(Cc2cc([C@@H]3O[C@]4(CCCO4)[C@@H](O)[C@H](O)[C@H]3O)ccc2C)cc1 | 53 | 1100 | –
5 | CCc1ccc(Cc2cc([C@@H]3OC4(COC4)[C@@H](O)[C@H](O)[C@H]3O)ccc2C)cc1 | 3.4 | 1500 | –
6 | COc1ccc(Cc2cc([C@@H]3OC4(COC4)[C@@H](O)[C@H](O)[C@H]3O)ccc2C)cc1 | 6.6 | 1540 | clearance [3]: 22.3 mL/min/kg; Vd [4]: 2.3 L/kg; half-life [5]: 72 min; bioavailability [6]: 100%; Activity (Rattus norvegicus): 2000 mg
7 | CCc1ccc(Cc2cc([C@@H]3OC4(CC4)[C@@H](O)[C@H](O)[C@H]3O)ccc2C)cc1 | 3 | 190 | Ratio IC50 (Homo sapiens): 63; clearance [7]: 112 mL/min/kg; Vd [8]: 5.7 L/kg; half-life [9]: 35.4 min
8 | CCc1ccc(Cc2cc([C@H]3C[C@@H](O)[C@H](O)[C@@H](CO)O3)ccc2C)cc1 | > 10000 | – | –
9 | COc1ccc(Cc2cc([C@@H]3OC(CO)(CO)[C@@H](O)[C@H](O)[C@H]3O)ccc2Cl)cc1 | 59 | 6800 | –
10 | COc1ccc(Cc2cc([C@@H]3OC4(CC4)[C@@H](O)[C@H](O)[C@H]3O)ccc2C)cc1 | 7.9 | 370 | Ratio IC50 (Homo sapiens): 47; clearance [7]: 48.9 mL/min/kg; Vd [8]: 2.6 L/kg; half-life [9]: 36.6 min
11 | CCc1ccc(Cc2cc([C@@H]3OC4(CS(=O)(=O)C4)[C@@H](O)[C@H](O)[C@H]3O)ccc2C)cc1 | 14 | > 10000 | –
12 | CCc1ccc(Cc2cc([C@@H]3OC4(CNC4)[C@@H](O)[C@H](O)[C@H]3O)ccc2C)cc1 | 5100 | > 10000 | –

Second part, led by results:

Row | IC50 [1] [nM] | IC50 [2] [nM] | Compound | further results
13 | 1.5 | – | CCc1ccc(Cc2cc([C@@H]3O[C@H](CO)[C@@H](O)[C@H](O)[C@H]3O)ccc2C)cc1 | –
14 | 139 | – | CCc1ccc(Cc2cc([C@@H]3O[C@H](CO)[C@H](O)[C@H](O)[C@H]3O)ccc2C)cc1 | –
15 | 32 | 5600 | CCOc1ccc(Cc2cc([C@@H]3OC4(COC4)[C@@H](O)[C@H](O)[C@H]3O)ccc2Cl)cc1 | –
16 | 140 | – | COc1ccc(Cc2cc([C@@H]3O[C@H](CO)[C@@H](O)[C@H](O)[C@H]3OC)ccc2Cl)cc1 | –
17 | 180 | – | COc1ccc(Cc2cc([C@@H]3O[C@H](CO)[C@@H](OC)[C@H](O)[C@H]3O)ccc2Cl)cc1 | –
18 | 21 | – | COc1ccc(Cc2cc([C@@H]3O[C@H](CO)C[C@H](O)[C@H]3O)ccc2Cl)cc1 | –
19 | 3700 | – | CCc1ccc(Cc2cc([C@@H]3O[C@H](CO)[C@@H](O)[C@@H](O)[C@H]3O)ccc2C)cc1 | –
20 | 1 | 240 | COc1ccc(Cc2cc([C@@H]3O[C@H](CO)[C@@H](O)[C@H](O)[C@H]3O)ccc2Cl)cc1 | –
21 | 2.4 | 73 | COc1ccc(Cc2cc([C@@H]3O[C@H](C)[C@@H](O)[C@H](O)[C@H]3O)ccc2Cl)cc1 | –
22 | 5.1 | – | COc1ccc(Cc2cc([C@@H]3O[C@H](CF)[C@@H](O)[C@H](O)[C@H]3O)ccc2Cl)cc1 | –
